# From PMC5218480 (PLoS ONE, 2017)
# Test system: MV-4-11 cells
# Test: Gene expression microarray analysis (Affymetrix PrimeView) and GSEA
# Type: cell-based, human
# Parameters: RFU PODN (11730768_x_at) / Fold change /veh PODN (11730768_x_at) / RFU LINC00158 (11744669_a_at) / Fold change /veh LINC00158 (11744669_a_at) / RFU DUSP10 (11751237_a_at) / Fold change /veh DUSP10 (11751237_a_at) / RFU ID3 (11757404_x_at) / Fold change /veh ID3 (11757404_x_at) / RFU PLEKHG5 (11737974_s_at) / Fold change /veh PLEKHG5 (11737974_s_at) / RFU LRRC4B (11730491_at) / Fold change /veh LRRC4B (11730491_at) / RFU GIMAP4 (11747438_a_at) / Fold change /veh GIMAP4 (11747438_a_at) / RFU KRT8 (11758183_x_at) / Fold change /veh KRT8 (11758183_x_at) / RFU CNN1 (11734310_a_at) / Fold change /veh CNN1 (11734310_a_at) / RFU VPS37D (11726825_at) / Fold change /veh VPS37D (11726825_at) / RFU C10orf10 (11716522_x_at) / Fold change /veh C10orf10 (11716522_x_at) / RFU KIR2DL2 /// KIR2DL4 /// KIR2DL5A /// KIR2DL5B /// KIR2DS1 /// KIR2DS2 /// KIR2DS3 /// KIR2DS4 /// KIR3DL3 /// KIR3DL3 /// KIR3DS1 (11738374_at) / Fold change /veh KIR2DL2 /// KIR2DL4 /// KIR2DL5A /// KIR2DL5B /// KIR2DS1 /// KIR2DS2 /// KIR2DS3 /// KIR2DS4 /// KIR3DL3 /// KIR3DL3 /// KIR3DS1 (11738374_at) / RFU C1QL1 (11718748_at) / Fold change /veh C1QL1 (11718748_at) / RFU TMPRSS4 (11747572_a_at) / Fold change /veh TMPRSS4 (11747572_a_at) / RFU HAMP (11756126_x_at) / Fold change /veh HAMP (11756126_x_at) / RFU RNFT2 (11725882_a_at) / Fold change /veh RNFT2 (11725882_a_at) / RFU NR4A2 (11747474_a_at) / Fold change /veh NR4A2 (11747474_a_at) / RFU ABCC12 (11746883_a_at) / Fold change /veh ABCC12 (11746883_a_at) / RFU TMEM136 (11760407_x_at) / Fold change /veh TMEM136 (11760407_x_at) / RFU CLDN22 /// WWC2 (11732394_at) / Fold change /veh CLDN22 /// WWC2 (11732394_at) / RFU HLA-DPB1 (11760878_x_at) / Fold change /veh HLA-DPB1 (11760878_x_at) / RFU SPINT1 (11716480_a_at) / Fold change /veh SPINT1 (11716480_a_at) / RFU GAP43 (11754022_s_at) / Fold change /veh GAP43 (11754022_s_at) / RFU A4GNT (11735810_at) / Fold change /veh A4GNT (11735810_at) / RFU PRB3 (11715151_x_at) / Fold change /veh PRB3 (11715151_x_at) / RFU TUBB4B (11761932_at) / Fold change /veh TUBB4B (11761932_at) / RFU CAPN14 (11732068_a_at) / Fold change /veh CAPN14 (11732068_a_at) / RFU TMCC2 (11721928_a_at) / Fold change /veh TMCC2 (11721928_a_at) / RFU IRGQ (11745062_a_at) / Fold change /veh IRGQ (11745062_a_at) / RFU FAM174B (11720279_a_at) / Fold change /veh FAM174B (11720279_a_at) / RFU TMPRSS4 (11748680_a_at) / Fold change /veh TMPRSS4 (11748680_a_at) / RFU FAM212B (11763350_a_at) / Fold change /veh FAM212B (11763350_a_at) / RFU PLEKHG5 (11743358_a_at) / Fold change /veh PLEKHG5 (11743358_a_at) / RFU ZSCAN30 (11745921_a_at) / Fold change /veh ZSCAN30 (11745921_a_at) / RFU CMKLR1 (11741424_a_at) / Fold change /veh CMKLR1 (11741424_a_at) / RFU LOC101060620 /// MAPK8IP1 (11723275_at) / Fold change /veh LOC101060620 /// MAPK8IP1 (11723275_at) / RFU SPTSSB (11747773_x_at) / Fold change /veh SPTSSB (11747773_x_at) / RFU PRSS12 (11739890_at) / Fold change /veh PRSS12 (11739890_at) / RFU BIN1 (11741810_x_at) / Fold change /veh BIN1 (11741810_x_at) / RFU WNT11 (11732464_a_at) / Fold change /veh WNT11 (11732464_a_at) / RFU C10orf10 (11716521_a_at) / Fold change /veh C10orf10 (11716521_a_at) / RFU C5orf56 (11738089_at) / Fold change /veh C5orf56 (11738089_at) / RFU CYB561 (11721691_x_at) / Fold change /veh CYB561 (11721691_x_at) / RFU ANKRD19P (11752326_a_at) / Fold change /veh ANKRD19P (11752326_a_at) / RFU OR2T12 /// OR2T33 /// OR2T8 (11738714_s_at) / Fold change /veh OR2T12 /// OR2T33 /// OR2T8 (11738714_s_at) / RFU VCAN (11748164_a_at) / Fold change /veh VCAN (11748164_a_at) / RFU JSRP1 (11732532_at) / Fold change /veh JSRP1 (11732532_at) / RFU KRTAP10-11 (11738290_x_at) / Fold change /veh KRTAP10-11 (11738290_x_at) / RFU MYO3A (11730013_a_at) / Fold change /veh MYO3A (11730013_a_at) / RFU EBF3 (11725865_a_at) / Fold change /veh EBF3 (11725865_a_at) / RFU CAMK2N1 (11719241_x_at) / Fold change /veh CAMK2N1 (11719241_x_at) / RFU C5orf56 (11738088_a_at) / Fold change /veh C5orf56 (11738088_a_at) / RFU OLFML3 (11715873_a_at) / Fold change /veh OLFML3 (11715873_a_at) / RFU LOC100653217 /// NTM (11731650_a_at) / Fold change /veh LOC100653217 /// NTM (11731650_a_at) / RFU MAPK11 (11762145_a_at) / Fold change /veh MAPK11 (11762145_a_at) / RFU FIZ1 (11724087_x_at) / Fold change /veh FIZ1 (11724087_x_at) / RFU OASL (11726364_x_at) / Fold change /veh OASL (11726364_x_at) / RFU SOX15 (11748057_x_at) / Fold change /veh SOX15 (11748057_x_at) / RFU CD79A (11719716_a_at) / Fold change /veh CD79A (11719716_a_at) / RFU HIST1H1D (11736915_at) / Fold change /veh HIST1H1D (11736915_at) / RFU CASKIN2 (11723855_a_at) / Fold change /veh CASKIN2 (11723855_a_at) / RFU LOC730098 (11760151_x_at) / Fold change /veh LOC730098 (11760151_x_at) / RFU OR4N2 (11742367_at) / Fold change /veh OR4N2 (11742367_at) / RFU PRRT2 (11749266_a_at) / Fold change /veh PRRT2 (11749266_a_at) / RFU SNX32 (11753110_a_at) / Fold change /veh SNX32 (11753110_a_at) / RFU CDHR5 (11726645_a_at) / Fold change /veh CDHR5 (11726645_a_at) / RFU RCAN1 (11760418_a_at) / Fold change /veh RCAN1 (11760418_a_at) / RFU FAM167A (11723789_a_at) / Fold change /veh FAM167A (11723789_a_at) / RFU FAM26E (11764081_at) / Fold change /veh FAM26E (11764081_at) / RFU ISYNA1 (11749810_s_at) / Fold change /veh ISYNA1 (11749810_s_at) / RFU ACY1 (11761880_at) / Fold change /veh ACY1 (11761880_at) / RFU 11764098_at / Fold change /veh 11764098_at / RFU SAMD14 (11745864_x_at) / Fold change /veh SAMD14 (11745864_x_at) / RFU NPB (11741838_a_at) / Fold change /veh NPB (11741838_a_at) / RFU TMPRSS6 (11731388_a_at) / Fold change /veh TMPRSS6 (11731388_a_at) / RFU KRTAP10-2 (11738614_at) / Fold change /veh KRTAP10-2 (11738614_at) / RFU ARHGAP8 /// PRR5-ARHGAP8 (11727945_x_at) / Fold change /veh ARHGAP8 /// PRR5-ARHGAP8 (11727945_x_at) / RFU KRTAP5-7 /// NADSYN1 (11734609_at) / Fold change /veh KRTAP5-7 /// NADSYN1 (11734609_at) / RFU RASL12 (11751679_a_at) / Fold change /veh RASL12 (11751679_a_at) / RFU CDKN2B (11736163_a_at) / Fold change /veh CDKN2B (11736163_a_at) / RFU PRF1 (11729649_at) / Fold change /veh PRF1 (11729649_at) / RFU, ZNF638 /// ZNF638-IT1 / Fold change vs veh, ZNF638 /// ZNF638-IT1 / RFU, PANK3 / Fold change vs veh, PANK3 / RFU, SH3YL1 / Fold change vs veh, SH3YL1 / RFU, ZEB2 / Fold change vs veh, ZEB2 / RFU, NRIP1 / Fold change vs veh, NRIP1 / RFU, PTTG1IP / Fold change vs veh, PTTG1IP / RFU, CAPN2 / Fold change vs veh, CAPN2 / RFU, MED14 / Fold change vs veh, MED14 / RFU, SNORA58 / Fold change vs veh, SNORA58 / RFU, C1orf63 / Fold change vs veh, C1orf63 / RFU, LRRFIP1 / Fold change vs veh, LRRFIP1 / RFU, NDUFAF7 / Fold change vs veh, NDUFAF7 / RFU, SLC12A2 / Fold change vs veh, SLC12A2 / RFU, IBTK / Fold change vs veh, IBTK / RFU, ESF1 / Fold change vs veh, ESF1 / Fold change vs veh, TMEM50B / RFU, TAOK1 / Fold change vs veh, TAOK1 / RFU, ACBD3 / Fold change vs veh, ACBD3 / RFU, TMA16 / Fold change vs veh, TMA16 / RFU, RWDD3 / Fold change vs veh, RWDD3 / RFU, BCAT1 / Fold change vs veh, BCAT1 / RFU, EDEM3 / Fold change vs veh, EDEM3 / RFU, TMEM33 / Fold change vs veh, TMEM33 / RFU, WDR75 / Fold change vs veh, WDR75 / RFU, AHCTF1 / Fold change vs veh, AHCTF1 / RFU, TFRC / Fold change vs veh, TFRC / RFU, ZDHHC17 / Fold change vs veh, ZDHHC17 / RFU, NOM1 / Fold change vs veh, NOM1 / RFU, ARL8B / Fold change vs veh, ARL8B / RFU, ZBTB11 / Fold change vs veh, ZBTB11 / RFU, TAMM41 / Fold change vs veh, TAMM41 / RFU, KIAA1704 /// LOC100996395 / Fold change vs veh, KIAA1704 /// LOC100996395 / RFU, ING1 / Fold change vs veh, ING1 / RFU, TRMT61B / Fold change vs veh, TRMT61B / RFU, FUBP3 / Fold change vs veh, FUBP3 / RFU, TP53 / Fold change vs veh, TP53 / RFU, TNKS2 / Fold change vs veh, TNKS2 / RFU, ZFP14 / Fold change vs veh, ZFP14 / RFU, ACTR2 / Fold change vs veh, ACTR2 / RFU, PPP3R1 / Fold change vs veh, PPP3R1 / RFU, PIK3R1 / Fold change vs veh, PIK3R1 / RFU, HNRNPA1 / Fold change vs veh, HNRNPA1 / RFU, RNF170 / Fold change vs veh, RNF170 / RFU, ZNF28 / Fold change vs veh, ZNF28 / RFU, RNGTT / Fold change vs veh, RNGTT / RFU, OGT / Fold change vs veh, OGT / RFU, BRD1 / Fold change vs veh, BRD1 / RFU, MARS / Fold change vs veh, MARS / RFU, ZNF655 / Fold change vs veh, ZNF655 / RFU, FAHD1 / Fold change vs veh, FAHD1 / RFU, BDP1 / Fold change vs veh, BDP1 / RFU, LRRCC1 / Fold change vs veh, LRRCC1 / RFU, ARID1A / Fold change vs veh, ARID1A / RFU, ZNF146 / Fold change vs veh, ZNF146 / RFU, ZNF330 / Fold change vs veh, ZNF330 / RFU, GPN3 / Fold change vs veh, GPN3 / RFU, C9orf123 / Fold change vs veh, C9orf123 / RFU, N4BP2L2 / Fold change vs veh, N4BP2L2 / RFU, ARFIP1 / Fold change vs veh, ARFIP1 / RFU, FAM179B / Fold change vs veh, FAM179B / RFU, BCL10 / Fold change vs veh, BCL10 / RFU, UHRF1BP1L / Fold change vs veh, UHRF1BP1L / RFU, BET1 / Fold change vs veh, BET1 / RFU, CNOT2 / Fold change vs veh, CNOT2 / RFU, ZNF268 / Fold change vs veh, ZNF268 / Fold change vs veh, ZNF507 / RFU, DGCR2 / Fold change vs veh, DGCR2 / RFU, WDSUB1 / Fold change vs veh, WDSUB1 / Fold change vs veh, HSP90B1 /// MIR3652 / RFU, ADSS / Fold change vs veh, ADSS / RFU, GK / Fold change vs veh, GK / RFU, ZNF148 / Fold change vs veh, ZNF148 / RFU, TAF9 / Fold change vs veh, TAF9 / RFU, SLC1A5 / Fold change vs veh, SLC1A5 / RFU, SLMO2 / Fold change vs veh, SLMO2 / RFU, ABCC4 / Fold change vs veh, ABCC4 / RFU, LOC101060439 /// RAP1B / Fold change vs veh, LOC101060439 /// RAP1B / RFU, RFX7 / Fold change vs veh, RFX7 / RFU, GTPBP10 / Fold change vs veh, GTPBP10 / RFU, CNEP1R1 / Fold change vs veh, CNEP1R1 / RFU, BIVM-ERCC5 /// ERCC5 / Fold change vs veh, BIVM-ERCC5 /// ERCC5 / RFU, ILF3 / Fold change vs veh, ILF3 / RFU 11762660_at / Fold change /veh 11762660_at / RFU VCAN (11757783_s_at) / Fold change /veh VCAN (11757783_s_at) / RFU DDX43 (11728927_at) / Fold change /veh DDX43 (11728927_at) / RFU KRT8 (11758188_x_at) / Fold change /veh KRT8 (11758188_x_at) / RFU NKD1 (11759106_at) / Fold change /veh NKD1 (11759106_at) / RFU SRD5A1 (11742802_a_at) / Fold change /veh SRD5A1 (11742802_a_at) / RFU TPSAB1 /// TPSB2 (11721975_s_at) / Fold change /veh TPSAB1 /// TPSB2 (11721975_s_at) / RFU GSTM3 (11746129_a_at) / Fold change /veh GSTM3 (11746129_a_at) / RFU IL23R (11737362_x_at) / Fold change /veh IL23R (11737362_x_at) / RFU TMEM51 (11727254_a_at) / Fold change /veh TMEM51 (11727254_a_at) / RFU PIWIL2 (11732686_x_at) / Fold change /veh PIWIL2 (11732686_x_at) / RFU ORM1 (11744905_x_at) / Fold change /veh ORM1 (11744905_x_at) / RFU CCDC152 (11743942_at) / Fold change /veh CCDC152 (11743942_at) / RFU ECM1 (11717891_a_at) / Fold change /veh ECM1 (11717891_a_at) / RFU IL23R (11748794_a_at) / Fold change /veh IL23R (11748794_a_at) / RFU TNFAIP8L3 (11732012_x_at) / Fold change /veh TNFAIP8L3 (11732012_x_at) / RFU MBOAT4 (11741988_at) / Fold change /veh MBOAT4 (11741988_at) / RFU 11764193_at / Fold change /veh 11764193_at / RFU TMEM53 (11763286_at) / Fold change /veh TMEM53 (11763286_at) / RFU MAGEB2 (11727129_at) / Fold change /veh MAGEB2 (11727129_at) / RFU TMEM200A (11744735_a_at) / Fold change /veh TMEM200A (11744735_a_at) / RFU CCDC152 (11751479_a_at) / Fold change /veh CCDC152 (11751479_a_at) / RFU FAM211A (11726209_a_at) / Fold change /veh FAM211A (11726209_a_at) / RFU RGS16 (11746705_a_at) / Fold change /veh RGS16 (11746705_a_at) / RFU VCAN (11755009_s_at) / Fold change /veh VCAN (11755009_s_at) / RFU RHOB (11743442_s_at) / Fold change /veh RHOB (11743442_s_at) / RFU RGS16 (11720943_a_at) / Fold change /veh RGS16 (11720943_a_at) / RFU RGS16 (11720944_at) / Fold change /veh RGS16 (11720944_at) / RFU, VPS4B / Fold change vs veh, VPS4B / RFU, CREB1 / Fold change vs veh, CREB1 / RFU, DNAJC13 / Fold change vs veh, DNAJC13 / RFU, GNAQ / Fold change vs veh, GNAQ / RFU, CDK5R1 / Fold change vs veh, CDK5R1 / RFU, ZRANB3 / Fold change vs veh, ZRANB3 / RFU, CUL4A / Fold change vs veh, CUL4A / RFU, CCNY / Fold change vs veh, CCNY / RFU, UFL1 / Fold change vs veh, UFL1 / RFU, COG3 / Fold change vs veh, COG3 / RFU, DIAPH2 / Fold change vs veh, DIAPH2 / RFU, SKA2 / Fold change vs veh, SKA2 / RFU, AFF3 / Fold change vs veh, AFF3 / RFU, LMF1 / Fold change vs veh, LMF1 / RFU, IPO11 / Fold change vs veh, IPO11 / RFU, DFFB / Fold change vs veh, DFFB / RFU, FOXP1 / Fold change vs veh, FOXP1 / RFU, CARD8 / Fold change vs veh, CARD8 / RFU, STRN3 / Fold change vs veh, STRN3 / RFU, ADK / Fold change vs veh, ADK / RFU, RASSF2 / Fold change vs veh, RASSF2 / RFU, WIPF1 / Fold change vs veh, WIPF1 / RFU, LARP1B / Fold change vs veh, LARP1B / RFU, RASA1 / Fold change vs veh, RASA1 / RFU, RB1 / Fold change vs veh, RB1 / RFU, PPFIA1 / Fold change vs veh, PPFIA1 / RFU, MAT2A / Fold change vs veh, MAT2A / RFU, CCT5 / Fold change vs veh, CCT5 / RFU, WDR92 / Fold change vs veh, WDR92 / RFU, CUX1 / Fold change vs veh, CUX1 / RFU, TTC7A / Fold change vs veh, TTC7A / RFU, TMEM135 / Fold change vs veh, TMEM135 / RFU, DEPTOR / Fold change vs veh, DEPTOR / RFU, CPM / Fold change vs veh, CPM / RFU, DNAJB6 / Fold change vs veh, DNAJB6 / RFU, CACNA2D3 / Fold change vs veh, CACNA2D3 / RFU, DTX4 / Fold change vs veh, DTX4 / RFU, TFCP2 / Fold change vs veh, TFCP2 / RFU, GMCL1 /// GMCL1P1 / Fold change vs veh, GMCL1 /// GMCL1P1 / RFU, AEBP2 / Fold change vs veh, AEBP2 / RFU, SNHG1 /// SNORD22 /// SNORD25 /// SNORD26 /// SNORD27 /// SNORD28 /// SNORD29 /// SNORD31 / Fold change vs veh, SNHG1 /// SNORD22 /// SNORD25 /// SNORD26 /// SNORD27 /// SNORD28 /// SNORD29 /// SNORD31 / Fold change (Aza/veh), C12orf56 (ProbeSet 11735607_a_at) / Fold change (ACY-1035/veh), C12orf56 (ProbeSet 11735607_a_at) / Fold change (Aza/veh), FGFR1OP (ProbeSet 11751329_s_at) / Fold change (ACY-1035/veh), FGFR1OP (ProbeSet 11751329_s_at) / Fold change (Aza/veh), VPS36 (ProbeSet 11739960_a_at) / Fold change (ACY-1035/veh), VPS36 (ProbeSet 11739960_a_at) / RFU SYPL1 (11715823_x_at) / Fold change /veh SYPL1 (11715823_x_at) / RFU IGFBP7 (11715501_s_at) / Fold change /veh IGFBP7 (11715501_s_at) / RFU REEP3 (11722064_at) / Fold change /veh REEP3 (11722064_at) / RFU IGLL1 (11728026_x_at) / Fold change /veh IGLL1 (11728026_x_at): dose or concentration left out as unconfirmed
# Details: ProbeSet 11715478_a_at; LIST B
compound,measurement,value
Nc1ncn([C@@H]2O[C@H](CO)[C@@H](O)[C@H]2O)c(=O)n1 [azacitidine],"RFU, TFRC",131.21 RFU
